Laboratory results: ChEMBL document CHEMBL1141890, “DNA topoisomerase I inhibitors from Rinorea anguifera” (Bioorg Med Chem Lett, 2005)

Columns and labels:
[1] = target: T1, DNA topoisomerase 1 (Homo sapiens) (UniProt P11387); details: 0.25 uM
T1 sequence (whole entry): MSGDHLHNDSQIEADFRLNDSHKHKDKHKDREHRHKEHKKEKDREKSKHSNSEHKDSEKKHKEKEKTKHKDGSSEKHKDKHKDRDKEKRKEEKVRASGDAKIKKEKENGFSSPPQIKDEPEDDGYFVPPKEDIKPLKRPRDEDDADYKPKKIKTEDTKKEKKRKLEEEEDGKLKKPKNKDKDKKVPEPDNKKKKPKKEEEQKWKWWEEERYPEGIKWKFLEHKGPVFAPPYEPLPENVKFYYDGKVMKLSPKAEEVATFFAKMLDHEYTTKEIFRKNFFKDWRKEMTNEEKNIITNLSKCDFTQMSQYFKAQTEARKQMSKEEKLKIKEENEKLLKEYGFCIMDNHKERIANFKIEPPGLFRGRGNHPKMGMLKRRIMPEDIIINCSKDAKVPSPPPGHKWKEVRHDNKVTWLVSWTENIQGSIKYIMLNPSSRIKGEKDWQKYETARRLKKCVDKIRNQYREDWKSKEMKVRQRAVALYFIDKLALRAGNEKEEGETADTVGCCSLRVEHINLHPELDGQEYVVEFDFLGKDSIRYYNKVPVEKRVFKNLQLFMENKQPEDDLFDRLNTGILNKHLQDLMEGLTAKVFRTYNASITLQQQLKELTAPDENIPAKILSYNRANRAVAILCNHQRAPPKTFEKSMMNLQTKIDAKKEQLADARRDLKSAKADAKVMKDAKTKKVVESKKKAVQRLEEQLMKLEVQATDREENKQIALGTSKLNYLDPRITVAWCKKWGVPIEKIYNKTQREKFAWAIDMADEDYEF
Description: Effect on DNA breakge as nicked FormII at 0.25 uM with topoisomerase I

[2] = target: T1, DNA topoisomerase 1 (Homo sapiens); details: 2 uM
Description: Effect on DNA breakge as nicked FormII at 2 uM without topoisomerase I

[3] = target: T1, DNA topoisomerase 1 (Homo sapiens); details: 2 uM; remark: listed apart in the source
Description: Effect on stabilization of human topoisomerase I-DNA covalent complex at 2 uM

[4] = target: T1, DNA topoisomerase 1 (Homo sapiens); test: Effect on DNA breakge as nicked FormII at 1 uM with topoisomerase I; format: functional
[5] = target: T1, DNA topoisomerase 1 (Homo sapiens); test: Effect on DNA breakge as nicked FormII at 100 uM without topoisomerase I; format: functional
[6] = target: T1, DNA topoisomerase 1 (Homo sapiens); test: Effect on stabilization of human topoisomerase I-DNA covalent complex at 100 uM

| SMILES | Effect [1] | Effect [2] | Effect [3] | Effect [4] | Effect [5] | Effect [6] |
| --- | --- | --- | --- | --- | --- | --- |
| CC[C@@]1(O)C(=O)OCc2c1cc1n(c2=O)Cc2cc3ccccc3nc2-1 | 84% | 96% | 2% | – | – | – |
| CC1O[C@@H](OC[C@H]2O[C@@H](Oc3c(-c4ccc(O)cc4)oc4cc(O)cc(O)c4c3=O)C(O[C@@H]3O[C@H](C)[C@H](O)C(O)C3O)C(O)[C@H]2O)C(O)[C@@H](O)[C@H]1O (some centres undefined) | – | – | – | 31% | 75% | 10% |
| COc1cc([C@H]2OC[C@H]3[C@@H]2CO[C@@H]3c2cc(OC)c(O)c(OC)c2)cc(OC)c1O | – | – | – | 8% | 15% | 2% |
